US20070196395A1, “Immunomodulatory compounds that target and inhibit the py'binding site of tyrosene kinase p56 lck sh2 domain” (priority 2003, published 2007)

What was measured:
SH2 domain of p56 Lck = SH2 domain of p56 Lck (Homo sapiens, UniProt P06239); assay: Inhibition of binding of the CD3ζ ITAM2 peptide to the SH2 domain of p56 Lck (affinity precipitation from Jurkat cell lysate, immunoblot); conditions: 100 μM; decreased blot intensity vs control
[1] = system: lymphocytes from two different strains of mice (B6 black and balb/c); assay: Mixed lymphocyte culture, 3H-thymidine uptake; type: cell-based, mouse; conditions: 100 μM to 1 μM; biphasic = inhibition at 100 μM, activation at 1 μM
Procedure: 100 mM solutions of compounds were prepared in DMSO.
Mixed lymphocyte culture assays were performed where lymphocytes from two different strains of mice with different histocompatibility antigens were mixed. Due to the difference in the histocompatibility antigens, resting T cells from both strains of mice will undergo blast transformation and propagate. As in any T cell activation process, the activation of Lck is essential. Therefore, the modulation of activation of Lck can be quantified as the downstream modulation in the levels of ^3H-TdR incorporation into DNA. 24 out of the 34 identified compounds were tested […], with 13 compounds showing inhibitory activity at a 100 μM concentration (FIG. 2). Thus, over 50% of the compounds identified by the in vitro assay also show activity in the cellular functional assay at the conditions described herein. These compounds represent the most promising leads for further development. […] Such effects may be associated with the regulatory mechanism of p56 Lck.
Another readout assay that is used to measure biological response is a mixed lymphocyte culture assay in which lymphocytes from two. different strains of mice with different histocompatibility antigens are mixed. Due to the difference in the histocompatibility antigens, resting T cells from both strains of mice undergo blast transformation and propagate. As in any T cell activation process, the activation of p56^lck is essential. Therefore, the modulation of p56^lck activity can be quantified as the downstream modulation in the levels of [^3H]-TdR incorporation into DNA.
Lymph node or splenic lymphocytes are harvested from two different allogeneic strains of mice. Cells (1×10^6) from each strain are mixed in 96 well culture plates containing 200 μl of culture medium in the presence or absence of the compound (0.1˜100 μM) and cultured for 72 h. Six hours before harvest, 0.5 μCi of [^3H]-TdR is added to each well. […] Filters are washed with PBS and then with ethanol and [^3H]-TdR incorporated into DNA is measured using scintillation counting. […]

Sequence of SH2 domain of p56 Lck (P06239 whole entry, the tested form may be a part): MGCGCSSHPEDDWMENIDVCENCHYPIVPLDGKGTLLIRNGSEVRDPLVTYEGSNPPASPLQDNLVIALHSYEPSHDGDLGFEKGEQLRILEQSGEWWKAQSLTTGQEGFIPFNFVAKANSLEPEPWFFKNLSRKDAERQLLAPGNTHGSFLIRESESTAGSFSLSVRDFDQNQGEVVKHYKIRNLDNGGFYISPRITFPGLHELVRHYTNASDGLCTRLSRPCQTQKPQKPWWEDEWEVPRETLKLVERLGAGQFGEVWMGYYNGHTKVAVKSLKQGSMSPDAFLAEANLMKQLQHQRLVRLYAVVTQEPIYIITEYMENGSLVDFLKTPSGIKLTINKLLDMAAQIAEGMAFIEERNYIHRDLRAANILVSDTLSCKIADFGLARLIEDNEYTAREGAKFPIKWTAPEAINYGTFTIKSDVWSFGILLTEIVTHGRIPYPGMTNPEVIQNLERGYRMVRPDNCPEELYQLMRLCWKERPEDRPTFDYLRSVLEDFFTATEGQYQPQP

| inhibition of p56 Lck SH2 domain association with phosphotyrosine-containing ITAM2 peptide (SH2 domain of p56 Lck) | Structure (SMILES) | activity profile in mixed lymphocyte culture assay across tested concentrations [1] |
| --- | --- | --- |
|  | N=C1S/C(=C/c2ccc(-c3cccc(C(=O)O)c3)o2)C(=O)N1c1ccc(F)cc1 [Compound 73] | inhibition |
| significant inhibitory activities | O=C(O)CSc1cccnc1Sc1ccc(Cl)cc1 [Compound 262] |  |
|  | COc1ccc(OC)c(NC(=O)CCNC(=O)Cn2cnc3ccccc3c2=O)c1 [Compound 139] | Biphasic |
| significant inhibitory activities | O=C(O)CC1S/C(=N\N=C2\CCCc3ccccc32)NC1=O (stereo not shown) [Compound 245] |  |
|  | Cc1ccc(NC(=O)c2cccc(NC(=O)c3ccccc3C(=O)O)c2)cc1C [Compound 99] | Biphasic |
| significant inhibitory activities | O=C(O)CSc1nsc(SCC(=O)O)n1 [Compound 232] |  |

| Structure (SMILES) | inhibition of p56 Lck SH2 domain association with phosphotyrosine-containing ITAM2 peptide (SH2 domain of p56 Lck) | activity profile in mixed lymphocyte culture assay across tested concentrations [1] |
| --- | --- | --- |
| Nc1nnc(SCc2ccc(C(=O)O)cc2)s1 [Compound 239] | significant inhibitory activities |  |
